# Experimental data published in patent publication US20040266784A1, “Calcium channel inhibitors comprising benzhydril spaced from piperazine” (priority 1998, published 2004).
# Like-named read-outs stand apart in the source and are kept apart here.
# Legend:
# [1] = biological target: T1, rat N-type channels (α1B+α2δ+β1b subunits) (Rattus norvegicus, UniProt Q02294); test: Whole cell patch clamp, N-type calcium channel block in HEK 293 cells; format: cell-based
# T1 construct: expressed in transfected cells
# Method: Antagonist activity was measured using whole cell patch recordings on human embryonic kidney cells either stably or transiently expressing rat N-type channels (α1B+[…]+β1b subunits) with 5 mM barium as a charge carrier. Alternatively, cells either stably or transiently expressing rat L-type channels (α1C+α2δ+β1b cDNA subunits) and P/Q-type channels (α1A+α2δ+β1b cDNA subunits)
# HEK 293 cells were transfected by a standard calcium-phosphate-DNA coprecipitation method using the rat α1B+β1b+α2δ N-type calcium channel subunits in a vertebrate expression vector (for example, see Current Protocols in Molecular Biology).
# After an incubation period of from 24 to 72 hrs the culture medium was removed and replaced with external recording solution (see below). Whole cell patch clamp experiments were performed using an Axopatch 200B amplifier (Axon Instruments, Burlingame, Calif.) linked to an IBM compatible personal computer equipped with pCLAMP software. […] Current data shown were elicited by a train of 100 ms test pulses at 0.066 Hz from −100 mV and/or −80 mV to various potentials (min. −20 mV, max. +30 mV). Drugs were perfused directly into the vicinity of the cells using a microperfusion system.
# Normalized dose-response curves were fit (Sigmaplot 4.0, SPSS Inc., Chicago, Ill.) by the Hill equation to determine IC50 values. Steady-state inactivation curves were plotted as the normalized test pulse amplitude following 5 s inactivating prepulses at +10 mV increments.
# Alternatively, N-type calcium channels (α1B+α2δ+β1b cDNA subunits), L-type channels (α1C+α2δ+β1b cDNA subunits) and P/Q-type channels (α1A+α2δ+β1b cDNA subunits) were transiently expressed in HEK 293 cells. Briefly, cells were cultured in Dulbecco's modified eagle medium (DMEM) supplemented with 10% fetal bovine serum, 200 U/ml penicillin and 0.2 mg/ml streptomycin at 37° C. with 5% CO2. […] At 12 hours the medium was replaced and the cells transiently transfected using a standard calcium phosphate protocol and the appropriate calcium channel cDNAs. Fresh DMEM was supplied and the cells transferred to 28° C./5% CO2.
# Whole cell patch clamp experiments were performed using an Axopatch 200B amplifier (Axon Instruments, Burlingame, Calif.) linked to a personal computer equipped with pCLAMP software. […] Currents were typically elicited from a holding potential of −80 mV to +10 mV using Clampex software (Axon Instruments). […] The compounds were then applied during the low frequency pulse trains for two to three minutes to assess tonic block, and subsequently the pulse frequency was increased to 0.2 Hz to assess frequency dependent block. Data were analyzed using Clampfit (Axon Instruments) and SigmaPlot 4.0 (Jandel Scientific).
# [2] = biological target: T2, human α1G subunits (T-type channels) (Homo sapiens, UniProt O43497); test: Block of α1G T-type channels, patch clamp in HEK cell lines; format: cell-based
# T2 construct: expressed in transfected cells
# Method: Standard patch-clamp techniques were employed to identify blockers of T-type currents. Briefly, previously described HEK cell lines stably expressing human α1G subunits were used for all the recordings (passage #: 4-20, 37° C., 5% CO2). To obtain T-type currents, plastic dishes containing semi-confluent cells were positioned on the stage of a ZEISS AXIOVERT S100 microscope after replacing the culture medium with external solution (see below). Whole-cell patches were obtained using pipettes (borosilicate glass with filament, O.D.: 1.5 mm, I.D.: 0.86 mm, 10 cm length), fabricated on a SUTTER P-97 puller with resistance values of ˜5 MΩ (see below for internal medium).
# Test compounds were dissolved in external solution, 0.1-0.01% DMSO. After ˜10 min rest, they were applied by gravity close to the cell using a WPI microfil tubing. The “non-inactivating” pre-pulse was used to examine the resting block of a compound. The “inactivating” protocol was employed to study voltage-dependent block. However, the initial data were obtained using the non-inactivating protocol.
# [3] = 0.067 Hz, read-out: IC50 for N-type Calcium Channel Block (0.067 Hz)
# [4] = 0.2 Hz, read-out: IC50 for N-type Calcium Channel Block (0.2 Hz)
# [5] = 80 mV, read-out: Block of α1G T-type Channels IC50, 80 mV
# [6] = 100 mV, non-inactivating protocol, read-out: Block of α1G T-type Channels IC50, 100 mV
# T2 sequence (O43497 whole entry): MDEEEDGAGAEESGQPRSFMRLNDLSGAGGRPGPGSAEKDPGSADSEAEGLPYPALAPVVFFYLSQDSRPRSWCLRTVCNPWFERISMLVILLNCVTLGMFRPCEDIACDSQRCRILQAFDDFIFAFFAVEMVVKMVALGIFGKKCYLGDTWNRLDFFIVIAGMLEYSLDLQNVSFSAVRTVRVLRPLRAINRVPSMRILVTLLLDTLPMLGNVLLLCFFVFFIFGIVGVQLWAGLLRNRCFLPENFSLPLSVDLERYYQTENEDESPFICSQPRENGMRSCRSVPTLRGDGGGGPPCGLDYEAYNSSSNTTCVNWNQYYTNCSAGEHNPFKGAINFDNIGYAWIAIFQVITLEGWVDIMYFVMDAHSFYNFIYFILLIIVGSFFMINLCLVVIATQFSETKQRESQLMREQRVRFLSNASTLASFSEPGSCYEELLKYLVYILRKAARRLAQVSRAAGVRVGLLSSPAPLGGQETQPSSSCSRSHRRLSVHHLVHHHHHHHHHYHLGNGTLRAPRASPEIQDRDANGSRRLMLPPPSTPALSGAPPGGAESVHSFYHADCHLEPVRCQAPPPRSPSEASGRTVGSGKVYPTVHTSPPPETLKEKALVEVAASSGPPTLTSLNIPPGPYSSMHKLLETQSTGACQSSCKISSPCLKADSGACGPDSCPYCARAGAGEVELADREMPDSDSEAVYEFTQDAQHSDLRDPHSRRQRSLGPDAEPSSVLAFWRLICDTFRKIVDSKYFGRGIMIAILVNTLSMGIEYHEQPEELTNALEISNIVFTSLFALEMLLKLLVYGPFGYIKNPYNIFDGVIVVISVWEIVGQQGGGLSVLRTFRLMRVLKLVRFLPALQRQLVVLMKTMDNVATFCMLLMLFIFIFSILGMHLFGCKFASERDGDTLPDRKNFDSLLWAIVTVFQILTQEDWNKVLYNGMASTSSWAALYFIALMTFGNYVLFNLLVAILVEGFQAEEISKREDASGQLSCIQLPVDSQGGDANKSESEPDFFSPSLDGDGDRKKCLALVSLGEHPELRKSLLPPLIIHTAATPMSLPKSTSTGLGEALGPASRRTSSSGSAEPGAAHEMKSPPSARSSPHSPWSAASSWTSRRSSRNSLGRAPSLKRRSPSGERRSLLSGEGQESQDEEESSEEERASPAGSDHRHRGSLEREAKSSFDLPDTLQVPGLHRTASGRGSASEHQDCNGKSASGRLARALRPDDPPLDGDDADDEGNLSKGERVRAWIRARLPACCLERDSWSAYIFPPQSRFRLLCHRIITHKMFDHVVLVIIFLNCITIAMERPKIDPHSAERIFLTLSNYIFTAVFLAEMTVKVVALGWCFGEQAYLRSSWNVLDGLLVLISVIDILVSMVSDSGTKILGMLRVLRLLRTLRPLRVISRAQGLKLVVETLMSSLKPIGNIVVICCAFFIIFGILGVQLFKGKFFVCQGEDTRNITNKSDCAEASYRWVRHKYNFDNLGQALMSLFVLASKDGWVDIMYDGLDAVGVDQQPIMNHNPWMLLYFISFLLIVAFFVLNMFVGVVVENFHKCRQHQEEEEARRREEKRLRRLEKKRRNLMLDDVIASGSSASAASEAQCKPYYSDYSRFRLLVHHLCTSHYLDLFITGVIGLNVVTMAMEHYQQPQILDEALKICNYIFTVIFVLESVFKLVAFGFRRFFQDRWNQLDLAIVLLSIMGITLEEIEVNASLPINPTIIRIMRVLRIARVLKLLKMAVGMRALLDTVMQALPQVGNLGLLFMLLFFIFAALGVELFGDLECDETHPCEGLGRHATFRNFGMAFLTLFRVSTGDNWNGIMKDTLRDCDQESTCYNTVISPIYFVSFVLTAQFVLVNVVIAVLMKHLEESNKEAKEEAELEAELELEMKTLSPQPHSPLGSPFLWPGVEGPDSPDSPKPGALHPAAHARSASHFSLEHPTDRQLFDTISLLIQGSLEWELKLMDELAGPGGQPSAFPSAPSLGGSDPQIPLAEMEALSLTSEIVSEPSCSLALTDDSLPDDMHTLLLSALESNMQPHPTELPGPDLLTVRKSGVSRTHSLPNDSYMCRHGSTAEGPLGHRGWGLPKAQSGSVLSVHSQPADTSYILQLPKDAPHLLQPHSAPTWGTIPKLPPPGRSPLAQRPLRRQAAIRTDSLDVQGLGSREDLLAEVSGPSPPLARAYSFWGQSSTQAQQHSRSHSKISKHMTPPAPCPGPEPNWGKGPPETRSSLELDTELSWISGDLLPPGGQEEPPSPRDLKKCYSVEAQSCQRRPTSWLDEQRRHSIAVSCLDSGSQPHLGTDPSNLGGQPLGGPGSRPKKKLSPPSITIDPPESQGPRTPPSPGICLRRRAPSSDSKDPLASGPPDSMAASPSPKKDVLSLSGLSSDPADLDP
"IC50 [1, 3] [nM]","IC50 [1, 4] [nM]","IC50 [2, 5] [nM]","IC50 [2, 6] [nM]",SMILES
280,180,–,–,"COc1cc(C(=O)N2CCN(C(=O)CCCC(O)C(c3ccc(F)cc3)c3ccc(F)cc3)CC2)cc(OC)c1OC (stereo not shown) [Compound P44, 6,6-bis-(4-fluoro-phenyl)-5-hydroxy-1-[4-(3,4,5-trimethoxy-benzoyl)-piperazin-1-yl]-hexan-1-one]"
102,56,–,–,"COc1cc(CN2CCN(C(=O)CCCCC(c3ccc(F)cc3)c3ccc(F)cc3)CC2=O)cc(OC)c1OC [Compound P48, 4-[6,6-bis-(4-fluoro-phenyl)-hexanoyl]-1-(3,4,5,-trimethoxy-benzyl)-piperazin-2-one]"
200,980,–,–,O=C1CN(C(=O)CCCCC(c2ccc(F)cc2)c2ccc(F)cc2)CCN1CCOc1ccc(F)cc1 [Compound P53]
190,150,–,–,COc1c(C(C)(C)C)cc(C(=O)N2CCN(C(=O)CCCCC(c3ccc(F)cc3)c3ccc(F)cc3)CC2=O)cc1C(C)(C)C [Compound P55]
600,400,–,–,CC(C)(C)c1cc(C(=O)N2CCN(C(=O)CCCCC(c3ccc(F)cc3)c3ccc(F)cc3)C(=O)C2)cc(C(C)(C)C)c1O [Compound P57]
970,790,–,–,"COc1ccc(OCCN2CCN(CCCCCC(c3ccc(F)cc3)c3ccc(F)cc3)CC2)cc1OC [Compound P60, 1-[6,6-bis-(4-fluoro-phenyl)-hexyl]-4-[2-(3,4,-dimethoxy-phenoxy)-ethyl]-piperazine]"
610,520,–,–,COc1cc(CN2CCN(CCCCCC(c3ccc(F)cc3)c3ccc(F)cc3)[C@@H](C(=O)O)C2)cc(OC)c1OC [Compound P61]
680,410,–,–,CCOC(=O)C1CN(CCCCCC(c2ccc(F)cc2)c2ccc(F)cc2)CCN1Cc1cc(OC)c(OC)c(OC)c1 (stereo not shown) [Compound P62]
541,390,–,–,COc1ccc(C(=O)N2CCN(C(=O)CCCCC(c3ccc(F)cc3)c3ccc(F)cc3)CC2)cc1OC [Compound P64]
705,517,–,–,Fc1ccc(C(CCCCCN2CCN(CCOc3ccc4c(c3)OCO4)CC2)c2ccc(F)cc2)cc1 [Compound P65]
502,410,–,–,O=C(CCCCC(c1ccc(F)cc1)c1ccc(F)cc1)N1CCN(c2nc3ccccc3s2)CC1 [Compound P69]
1040,1060,–,–,Fc1ccc(C(CCCCCN2CCN(Cc3cc(C(F)(F)F)cc(C(F)(F)F)c3)CC2)c2ccc(F)cc2)cc1 [Compound P70]
808,630,–,–,CC(C)(C)c1ccc(C(=O)N2CCN(C(=O)CCCCC(c3ccc(F)cc3)c3ccc(F)cc3)CC2)cc1 [Compound P72]
439,377,–,–,Fc1ccc(C(CCCCCN2CCN(Cc3ccc(Br)cc3)CC2)c2ccc(F)cc2)cc1 [Compound P73]
660,430,–,–,Fc1ccc(C(CCCCCN2CCN(CCSc3nc4ccccc4s3)CC2)c2ccc(F)cc2)cc1 [Compound P74]
680,514,–,–,Oc1c(Br)cc(CN2CCN(CCCCCC(c3ccc(F)cc3)c3ccc(F)cc3)CC2)cc1Br [Compound P76]
280,220,–,–,Fc1ccc(C(CCCCCN2CCN(Cc3ccc(OC(F)(F)F)cc3)CC2)c2ccc(F)cc2)cc1 [Compound P77]
64,30,–,–,COc1cc(CNCCN2CCN(CCCCCC(c3ccc(F)cc3)c3ccc(F)cc3)CC2)cc(OC)c1OC [Compound P78]
579,423,–,–,O=C(CCCCC(c1ccc(F)cc1)c1ccc(F)cc1)N1CCN(CCOc2ccc(F)cc2)CC1 [Compound P79]
960,660,–,–,O=C(CCCCC(c1ccc(F)cc1)c1ccc(F)cc1)N1CCN(CCNc2ccccc2)CC1 [Compound P80]
386,192,59,173,O=C(NCC(=O)N1CCN(CCCCCC(c2ccc(F)cc2)c2ccc(F)cc2)CC1)c1ccc(Cl)cc1 [Compound P83]
277,203,–,–,COc1cc(CN2CCN(CCCCCC(c3ccc(F)cc3)c3ccc(F)cc3)CC2)cc(OC)c1O [Compound P101]
419,292,–,–,COc1cc(CN2CCN(C(=O)CCCCCCCC(c3ccccc3)c3ccccc3)CC2)cc(OC)c1OC [Compound P102]

# Further lines, the compound ahead of its results:
SMILES,"IC50 [1, 3] [nM]","IC50 [1, 4] [nM]","IC50 [2, 5] [nM]","IC50 [2, 6] [nM]"
CC(C)(C)c1cc(C(=O)N2CCN(C(=O)CCCCC(c3ccc(F)cc3)c3ccc(F)cc3)CC2)cc(C(C)(C)C)c1O [Compound P28],379,217,–,–
Fc1ccc(C(CCCCCN2CCN(c3nc4ccccc4s3)CC2)c2ccc(F)cc2)cc1 [Compound P32],345,245,–,–
COc1cc(CN2CCN(CCCCCCCCC(c3ccc(F)cc3)c3ccc(F)cc3)CC2)cc(OC)c1OC [Compound P40],286,214,–,–
"COc1cc(C(=O)N2CCN(C(=O)CCCCC(O)(c3ccc(F)cc3)c3ccc(F)cc3)CC2)cc(OC)c1OC [Compound P46, 6,6-bis-(4-fluoro-phenyl)-6-hydroxy-1-[4-(3,4,5,-trimethoxy-benzoyl)-piperazin-1-yl]-hexan-1-one]",430,340,–,–
COc1c(C(C)(C)C)cc(CN2CCN(C(=O)CCCCC(c3ccc(F)cc3)c3ccc(F)cc3)CC2=O)cc1C(C)(C)C [Compound P52],400,370,–,–
COc1c(C(C)(C)C)cc(C(=O)N2CCN(CCCCCC(c3ccc(F)cc3)c3ccc(F)cc3)C(=O)C2)cc1C(C)(C)C [Compound P54],120,76,–,–
COc1c(C(C)(C)C)cc(CN2CCN(CCCCCC(c3ccc(F)cc3)c3ccc(F)cc3)C(=O)C2)cc1C(C)(C)C [Compound P56],78,59,92,95
"COc1ccc(OCCN2CCN(C(=O)CCCCC(c3ccc(F)cc3)c3ccc(F)cc3)CC2)cc1OC [Compound P59, 1-{4-[2-(3,4-dimethoxy-phenoxy)ethyl]-piperazin-1-yl}-6,6-bis-(4-fluoro-phenyl)-hexan-1-one]",810,430,–,–
COc1ccc(CN2CCN(CCCCCC(c3ccc(F)cc3)c3ccc(F)cc3)CC2)cc1OC [Compound P63],319,258,–,–
COc1cc(OCCN2CCN(CCCCCC(c3ccc(F)cc3)c3ccc(F)cc3)CC2)cc(OC)c1OC [Compound P66],800,550,–,–
Cc1cc(OC[C@@H](O)CN2CCN(CCCCCC(c3ccc(F)cc3)c3ccc(F)cc3)CC2)c(C)c(C)c1N [Compound P67],1050,928,–,–
Cc1cc(OC[C@@H](O)CN2CCN(C(=O)CCCCC(c3ccc(F)cc3)c3ccc(F)cc3)CC2)c(C)c(C)c1N [Compound P68],1580,975,–,–
O=C(CCCCC(c1ccc(F)cc1)c1ccc(F)cc1)N1CCN(C(=O)c2cc(C(F)(F)F)cc(C(F)(F)F)c2)CC1 [Compound P71],870,510,–,–
COc1cc(C(=O)N2CCN(C(=O)CCCCC(c3ccc(F)cc3)c3ccc(F)cc3)CC2)cc(OC)c1O [Compound P75],839,603,–,–
Cc1ccc(C(=O)NCC(=O)N2CCN(CCCCCC(c3ccc(F)cc3)c3ccc(F)cc3)CC2)cc1 [Compound P84],511,295,149,370
